For 15 molecules, IC50, IC90 and Ki results are on record in patent US10695334B2, “Heteroaromatic carboxamide derivatives as plasma kallikrein inhibitors” (Boehringer Ingelheim International GmbH, priority 2018, dated 2020).

For orientation: IC50 means the concentration at which inhibition is half-maximal. Read a low IC50 as higher potency. As a reminder, the IC90 is the concentration needed for an effect of 90%. One may read the Ki as a measure of affinity in units of concentration, obtained from inhibition or displacement. Lower therefore signals a stronger hold on the target.

The structures appear in SMILES notation. Bounds are passed on as bounds.

Common to all, as to format: biochemical
For experiment [1], the target named is human TK1 (Homo sapiens (Human), UniProt P06870). The experiment in a line: Inhibition of TK1 (Ki). As to conditions: column head prints IC50, text above the table says Ki values. The procedure:
The ability of compounds of formula (I) to inhibit plasma kallikrein (PKK), Factor Xlla (FXIIa), Factor Xla (FXIa), Factor Xa (FXa), Factor Ila (alpha-thrombin; FIIa), plasmin, trypsin, tissue kallikrein 1 (TK1), Factor VIIa (FVIIa), or FVIIa complexed with Tissue Factor, phospholipids and CaCl2 (FVIIa/TF/PL/CaCl2) was determined using the following biochemical assays in assay buffer (100 mM Tris, 150 mM NaCL, adjusted to a pH of 7.8 with HCl, and containing 0.1% (w/v) BSA and 0.05% (v/v) Tween20) in the presence of 1% (v/v) DMSO: EVALUATION OF THE INHIBITION OF PKK USING AN ENDPOINT ASSAY Human PKK (0.01 U/mL; Enzyme Research Laboratories) or rat PKK (0.625 nM; produced in-house) was incubated for 1 h at room temperature with 0.10 μM fluorogenic substrate H-Pro-Phe-Arg-AMC (11295 from Bachem) and various concentrations of the test compound in assay buffer. Subsequently, PPACK II (Calbiochem) was added as a stop solution to achieve a final concentration of 1 μM and fluorescence was measured using an Envision Reader (PerkinElmer) with the wavelength excitation setting of 355 nm and the wavelength emission setting of 460 nm.
Prior to the assay, human TK1 (R&D Systems) was activated by incubation with human trypsin (Calbiochem) in a 1:10,000 ratio for 15 min at 37° C. For assaying TK1 inhibitory activity, activated TK1 (31.25 nM or 1 U/mL) was incubated at 24° C. with 0.1 mM fluorogenic substrate H-Pro-Phe-Arg-AMC (11295 from Bachem) and various concentrations of the test compound in assay buffer. Measurements were performed in a kinetic interval every 2nd minute for 16 min using a Spectramax M5 (Molecular Devices) with the following settings of the wavelength excitation of 350 nm and wavelength emission of 450 nm.
The average Vmax values for the time interval from 2 to 12 min after initiation of the assay (expressed as either delta OD/min for assays using a chromogenic substrate or delta RFU/min for assays using a fluorigenic substrate, respectively) were plotted versus the Log of the concentration in molar of the evaluated inhibitor compound. The pIC50 values were then fitted using a four-parametric fitting procedure using GraphPad Prism (version 6; GraphPad Software, Inc.). Respective Ki values were obtained by correction of the IC50 values for the respective KM value of the used substrate (see Table A for the obtained KM values of the used substrates) using the following formula: […]
(§1) Where the IC50 is in molar and the KM value in mM.

The target in experiment [2] is PKK in kaolin activated human platelet poor plasma (Homo sapiens (Human), UniProt P03952). The experiment in a line: Inhibition of PKK in kaolin activated human PPP. As to conditions: global fit over 25, 75, 250, 750 μg/mL kaolin. The protocol: Platelet poor plasma (PPP) obtained from human wholeblood, anticoagulated with Na-Citrat, was incubated with various concentrations of the test compound together with either 25, 75, 250, or 750 μg/mL kaolin in assay buffer for 20 min at 37° C. such that for each kaolin dose used a concentration response was obtained for the test compound.

In experiment [3] the target is T1, Human PKK (Homo sapiens (Human), UniProt P03952). The experiment is described as follows: Inhibition of PKK (Ki), kinetic assay. As to conditions: 24° C., IC50 corrected for KM. The procedure:
Measurements were performed in a kinetic interval every 2nd minute for 16 min using a Spectramax M5 (Molecular Devices) with the following settings of the wavelength excitation of 350 nm and wavelength emission of 450 nm. The number of the compound corresponds to the number of the Example in the experimental section.
The pIC50 values were then fitted using a four-parametric fitting procedure using GraphPad Prism (version 6; GraphPad Software, Inc.).
as §1

The target of experiment [4] is T1, Human PKK. The experiment is described as follows: Inhibition of PKK, endpoint assay (human PKK). As to conditions: substrate H-Pro-Phe-Arg-AMC, 1 h room temperature. The procedure: Subsequently, PPACK II (Calbiochem) was added as a stop solution to achieve a final concentration of 1 μM and fluorescence was measured using an Envision Reader (PerkinElmer) with the wavelength excitation setting of 355 nm and the wavelength emission setting of 460 nm.

T1 sequence (P03952 391-638): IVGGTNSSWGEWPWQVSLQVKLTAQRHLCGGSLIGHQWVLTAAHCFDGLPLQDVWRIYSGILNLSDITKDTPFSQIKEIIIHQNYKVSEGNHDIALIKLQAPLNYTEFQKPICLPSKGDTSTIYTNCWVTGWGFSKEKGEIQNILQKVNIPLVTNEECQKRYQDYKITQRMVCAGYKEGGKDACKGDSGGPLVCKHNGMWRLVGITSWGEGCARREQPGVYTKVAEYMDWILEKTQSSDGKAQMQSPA
T1 sequence (P03952 20-390 partner): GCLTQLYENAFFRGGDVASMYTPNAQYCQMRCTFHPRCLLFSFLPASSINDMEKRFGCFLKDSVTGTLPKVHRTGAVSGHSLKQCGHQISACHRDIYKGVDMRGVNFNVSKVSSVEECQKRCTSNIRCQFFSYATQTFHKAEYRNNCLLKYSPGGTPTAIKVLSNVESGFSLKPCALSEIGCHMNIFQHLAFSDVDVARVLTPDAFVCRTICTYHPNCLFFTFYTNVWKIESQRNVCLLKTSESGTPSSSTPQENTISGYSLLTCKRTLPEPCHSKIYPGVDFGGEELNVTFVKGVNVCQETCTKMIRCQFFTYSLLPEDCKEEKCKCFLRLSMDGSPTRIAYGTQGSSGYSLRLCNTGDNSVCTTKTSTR
Sequence of PKK in kaolin activated human platelet poor plasma (P03952 391-638): as the sequence (P03952 391-638) above
Sequence of PKK in kaolin activated human platelet poor plasma (P03952 20-390 partner): as the sequence (P03952 20-390 partner) above
Sequence of human TK1 (P06870 25-262): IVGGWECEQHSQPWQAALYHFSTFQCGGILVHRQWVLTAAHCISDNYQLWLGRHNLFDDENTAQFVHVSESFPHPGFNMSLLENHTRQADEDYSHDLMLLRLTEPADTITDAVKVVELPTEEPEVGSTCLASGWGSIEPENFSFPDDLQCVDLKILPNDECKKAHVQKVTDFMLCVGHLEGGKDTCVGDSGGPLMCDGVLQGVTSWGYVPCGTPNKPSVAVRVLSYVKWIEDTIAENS

For the molecule `Cc1nc(N2CC3C(C2)C3(F)F)ccc1Cn1cc(C(=O)N[C@@H]2CCc3c(C)n[nH]c32)cn1` (stereo partly drawn) [Example 5, 1-[(6-{6,6-Difluoro-3-azabicyclo[3.1.0]hexan-3-yl}-2-methylpyridin-3-yl)methyl]-N-[(6R)-3-methyl-1H,4H,5H,6H-cyclopenta[c]pyrazol-6-yl]-1H-pyrazole-4-carboxamide], the results for the IC50 in experiment [1] and in experiment [4] were more than 10000 nM and 0.6 nM, respectively. Further, in experiment [2], the IC90 stood at 241 nM. Moreover, in experiment [3], the Ki stood at 0.3 nM.

Turning to `Cc1nc(N2CC3CC3C2)ccc1Cc1csc(C(=O)N[C@@H]2CCc3c(C)n[nH]c32)c1` (stereo partly drawn) [Example 6, 4-[(6-{3-Azabicyclo[3.1.0]hexan-3-yl}-2-methylpyridin-3-yl)methyl]-N-[(6R)-3-methyl-1H,4H,5H,6H-cyclopenta[c]pyrazol-6-yl]thiophene-2-carboxamide], the IC50 in experiment [1] was more than 10000 nM; in experiment [4] it was 0.7 nM. Further, in experiment [2], the IC90 was found to be 291 nM. Affinity in experiment [3] was put at a Ki of 0.5 nM.

Consider `Cc1nc(N2CC3CC3C2)ccc1Cc1c[nH]c(C(=O)N[C@@H]2CCc3c(C)n[nH]c32)c1` (stereo partly drawn) [Example 7, 4-[(6-{3-Azabicyclo[3.1.0]hexan-3-yl}-2-methylpyridin-3-yl)methyl]-N-[(6R)-3-methyl-1H,4H,5H,6H-cyclopenta[c]pyrazol-6-yl]-1H-pyrrole-2-carboxamide], for which the half-maximal inhibitory concentration (IC50) is more than 10000 nM in experiment [1] and 1 nM in experiment [4]. Moreover, in experiment [2], the IC90 turned out to be 342 nM. This molecule showed a Ki in experiment [3] of 0.7 nM.

In the case of `Cc1nc(N2CC3CC3C2)ccc1Cc1cc(C(=O)N[C@@H]2CCc3c(C)n[nH]c32)sc1C#N` (stereo partly drawn) [Example 8, 4-[(6-{3-Azabicyclo[3.1.0]hexan-3-yl}-2-methylpyridin-3-yl)methyl]-5-cyano-N-[(6R)-3-methyl-1H,4H,5H,6H-cyclopenta[c]pyrazol-6-yl]thiophene-2-carboxamide], the IC50 was more than 10000 nM in experiment [1] and 4 nM in experiment [4]. Besides, in experiment [2], the IC90 was found to be 1820 nM. In experiment [3], this molecule registered a Ki of 3 nM.

For `Cc1nc(N2CC3CC3C2)ccc1Cn1nnc(C(=O)N[C@@H]2CCc3c(C)n[nH]c32)n1` (stereo partly drawn) [Example 9, 2-[(6-{3-Azabicyclo[3.1.0]hexan-3-yl}-2-methylpyridin-3-yl)methyl]-N-[(6R)-3-methyl-1H,4H,5H,6H-cyclopenta[c]pyrazol-6-yl]-2H-1,2,3,4-tetrazole-5-carboxamide], the IC50 is more than 10000 nM in experiment [1] and 7 nM in experiment [4]. For the same molecule, the IC90 in experiment [2] amounted to 3480 nM. Also, in experiment [3], the affinity corresponds to a Ki of 5 nM.

For the molecule `Cc1nc(N2CC3CC3C2)ccc1Cn1cc(C(=O)N[C@@H]2CCc3c(C)n[nH]c32)c(Cl)n1` (stereo partly drawn) [Example 12, 1-[(6-{3-Azabicyclo[3.1.0]hexan-3-yl}-2-methylpyridin-3-yl)methyl]-3-chloro-N-[(6R)-3-methyl-1H,4H,5H,6H-cyclopenta[c]pyrazol-6-yl]-1H-pyrazole-4-carboxamide], the IC50 in experiment [1] was more than 10000 nM; in experiment [4], 1 nM. In experiment [2], the concentration for an effect of 90% (IC90) worked out at 3090 nM. Also, the Ki in experiment [3] is 2 nM.

Take `Cc1nc(N2CCC(C)(C)C2)ccc1Cn1cc(C(=O)N[C@@H]2CCc3c2n[nH]c3C)cn1` [Example 35, 1{[6-(3,3-Dimethylpyrrolidin-1-yl)-2-methylpyridin-3-yl]methyl}-N-[(6R)-3-methyl-2H,4H,5H,6H-cyclopenta[c]pyrazol-6-yl]-1H-pyrazole-4-carboxamide]: the IC50 in experiment [1] is more than 10000 nM; in experiment [4], 2 nM. Besides, in experiment [2], the 90% effect concentration (IC90) was determined as 2010 nM. Also, in experiment [3], the Ki stood at 0.9 nM.

Consider `Cc1nc(N2CCC3(CCC3)C2)ccc1Cn1cc(C(=O)N[C@@H]2CCc3c2n[nH]c3C)cn1` [Example 36, 1-[(6-{6-Azaspiro[3.4]octan-6-yl}-2-methylpyridin-3-yl)methyl]-N-[(6R)-3-methyl-2H,4H,5H,6H-cyclopenta[c]pyrazol-6-yl]-1H-pyrazole-4-carboxamide], for which the half-maximal inhibitory concentration (IC50) is more than 10000 nM in experiment [1] and 4 nM in experiment [4]. Further, the IC90 in experiment [2] amounted to 4670 nM. Affinity in experiment [3] was put at a Ki of 1 nM.

For `Cc1nc(N2CCC(F)(F)C2)ccc1Cn1cc(C(=O)N[C@@H]2CCc3c2n[nH]c3C)cn1` [Example 37, 1-{[6-(3,3-Difluoropyrrolidin-1-yl)-2-methylpyridin-3-yl]methyl}-N-[(6R)-3-methyl-2H,4H,5H,6H-cyclopenta[c]pyrazol-6-yl]-1H-pyrazole-4-carboxamide], the results for the half-inhibitory concentration (IC50) in experiment [1] and in experiment [4] were more than 10000 nM and 7 nM, respectively. In experiment [2], the 90% effect concentration (IC90) is 4980 nM. The Ki in experiment [3] was 2 nM.

Turning to `Cc1nc(N2CCC(C(F)F)C2)ccc1Cn1cc(C(=O)N[C@@H]2CCc3c2n[nH]c3C)cn1` (stereo partly drawn) [Example 46, 1-({6-[3-(Difluoromethyl)pyrrolidin-1-yl]-2-methylpyridin-3-yl}methyl)-N-[(6R)-3-methyl-2H,4H,5H,6H-cyclopenta[c]pyrazol-6-yl]-1H-pyrazole-4-carboxamide], the IC50 in experiment [1] is more than 10000 nM; in experiment [4], 4 nM. In addition, the IC90 in experiment [2] came to 2840 nM. Also, in experiment [3], the Ki is 1 nM.

With `Cc1nc(N2C[C@@H]3[C@H](C)[C@@H]3C2)ccc1Cn1cc(C(=O)N[C@@H]2CCc3c2n[nH]c3C)cn1` [Example 47, N-[(6R)-3-Methyl-2H,4H,5H,6H-cyclopenta[c]pyrazol-6-yl]-1-({2-methyl-6-[(1R,5S,6S)-6-methyl-3-azabicyclo[3.1.0]hexan-3-yl]pyridin-3-yl}methyl)-1H-pyrazole-4-carboxamide], the half-maximal inhibitory concentration (IC50) in experiment [1] is more than 10000 nM; in experiment [4], 0.9 nM. Besides, the IC90 in experiment [2] was found to be 445 nM. In experiment [3], the inhibitory constant (Ki) worked out at 0.4 nM.

`Cc1nc(N2CCCC2)ccc1Cn1cc(C(=O)N[C@@H]2CCc3c2n[nH]c3C)cn1` [Example 52, N-[(6R)-3-Methyl-2H,4H,5H,6H-cyclopenta[c]pyrazol-6-yl]-1-{[2-methyl-6-(pyrrolidin-1-yl)pyridin-3-yl]methyl}-1H-pyrazole-4-carboxamide]: the IC50 is more than 10000 nM in experiment [1] and 4 nM in experiment [4]. For the same molecule, the IC90 in experiment [2] was 5120 nM. In experiment [3], this molecule yielded an inhibition constant Ki of 1 nM.

`Cc1nc(N2CC3(CCC3)C2)ccc1Cn1cc(C(=O)N[C@@H]2CCc3c2n[nH]c3C)cn1` [Example 54, 1-[(6-{2-Azaspiro[3.31]heptan-2-yl}-2-methylpyridin-3-yl)methyl]-N-[(6R)-3-methyl-2H,4H,5H,6H-cyclopenta[c]pyrazol-6-yl]-1H-pyrazole-4-]: the IC50 is more than 10000 nM in experiment [1] and 2 nM in experiment [4]. The IC90 in experiment [2] worked out at 944 nM. The molecule further had an inhibition constant Ki in experiment [3] of 1 nM.

In the case of `Cc1nc(N2CCC(C)(C#N)C2)ccc1Cn1cc(C(=O)N[C@@H]2CCc3c2n[nH]c3C)cn1` (stereo partly drawn) [Example 71, 1-{[6-(3-Cyano-3-methylpyrrolidin-1-yl)-2-methylpyridin-3-yl]methyl}-N-[(6R)-3-methyl-2H,4H,5H,6H-cyclopenta[c]pyrazol-6-yl]-1H-pyrazole-4-carboxamide], the figures for the IC50 in experiment [1] and in experiment [4] were more than 10000 nM and 2 nM, respectively. In experiment [2], the IC90 stood at 708 nM. For the same molecule, in experiment [3], the Ki came to 1 nM.

As for `Cc1nc(N2CC(C)(F)C2)ccc1Cn1cc(C(=O)N[C@@H]2CCc3c2n[nH]c3C)cn1` [Example 77, 1-{[6-(3-Fluoro-3-methylazetidin-1-yl)-2-methylpyridin-3-yl]methyl}-N-[(6R)-3-methyl-2H,4H,5H,6H-cyclopenta[c]pyrazol-6-yl]-1H-pyrazole-4-carboxamide], the IC50 in experiment [1] is more than 10000 nM; in experiment [4], 5 nM. Moreover, the IC90 in experiment [2] worked out at 1110 nM. Also, the affinity in experiment [3], expressed as Ki, was 4 nM.
